# Assay results from BindingDB's records for doi:10.1021/jm00043a006 (Parke-Davis Pharmaceutical Research, 1994).
# Biological target: T1, Dimer of Gag-Pol polyprotein [489-587] (Human immunodeficiency virus 1, UniProt P12497)
# T1 construct: 489-587
# Assay: Protease Inhibition Assay
# Conditions: pH 4.7; 37 °C
# Procedure: For determination of IC50 values, HIV-1 protease was added to assay buffer containing inhibitor and the substrate (H-His-Lys-Ala-Arg-Val-Leu- (p-NO2) Phe-Glu-Ala-norleucine-Ser-NH2). The Leu- (p-NO2) Phe bond of the substrate was cleaved by the enzyme, and the substrate and products were separated by reversed-phase HPLC. Absorbance was measured at 220 nm, peak areas were determined, and percentage conversion to product was calculated.
row,SMILES,IC50 [µM]
1,Nc1cccc(OCCCc2c(O)c3ccccc3oc2=O)c1 [3-[3-(3-aminophenoxy)propyl]-4-hydroxy-2H-chromen-2-one],6.4
2,NC(=O)c1cccc(OCCCc2c(O)c3ccccc3oc2=O)c1 [3-[3-(4-Hydroxy-2-oxo-2H-1-benzopyran-3-yl)prpoxyl-benzamide],3.9
3,O=C(O)c1cccc(OCCCc2c(O)c3ccccc3oc2=O)c1 [3-[3-(4-hydroxy-2-oxo-2H-chromen-3-yl)propoxy]benzoic acid],7
4,O=c1oc2ccccc2c(O)c1CCCO [4-Hydroxy-3-(3-hydroxypropyl)-2H-1-benzopyran-2-one],86
5,O=c1oc2ccccc2c(O)c1CC/C(=N/O)c1ccccc1 [4-Hydroxy-3-[3-(hydroroKyimino)-3-phenylpropyl] -2H-1-benzopyran-2-one],71
6,"O=c1[nH]c2ccccc2c(O)c1CCCOc1ccccc1 [4-hydroxy-3-(3-phenoxypropyl)-1,2-dihydroquinolin-2-one]",> 200
7,O=c1oc2ccccc2c(O)c1CCCCOc1ccccc1 [4-hydroxy-3-(4-phenoxybutyl)-2H-chromen-2-one],> 100
8,COc1ccccc1OCCCc1c(O)c2ccccc2oc1=O [4-hydroxy-3-[3-(2-methoxyphenoxy)propyl]-2H-chromen-2-one],44
9,COc1ccccc1CCCCc1c(O)c2ccccc2oc1=O [4-hydroxy-3-[4-(2-methoxyphenyl)butyl]-2H-chromen-2-one],1.7
10,COc1ccc(CCCCc2c(O)c3ccccc3oc2=O)cc1 [4-hydroxy-3-[4-(4-methoxyphenyl)butyl]-2H-chromen-2-one],> 100
11,O=c1oc2ccccc2c(O)c1CCCOc1cccc(CO)c1 [4-hydroxy-3-{3-[3-(hydroxymethyl)phenoxy]propyl}-2H-chromen-2-one],2.3
12,COc1ccccc1CCCCc1c(O)c2ccc(OCc3ccccc3)cc2oc1=O [7-(benzyloxy)-4-hydroxy-3-[4-(2-methoxyphenyl)butyl]-2H-chromen-2-one],> 100
13,CCOC(=O)c1cccc(OCCCc2c(O)c3ccccc3oc2=O)c1 [ethyl 3-[3-(4-hydroxy-2-oxo-2H-chromen-3-yl)propoxy]benzoate],1.4
